Source: PMC4393303 (PLoS ONE, 2015)

Legend:
PknG = PknG (Mycobacterium tuberculosis, UniProt P9WI73)
PknD (GST-PknD) = PknD (GST-PknD) (Mycobacterium tuberculosis, UniProt P9WI79)
PknA = PknA (Mycobacterium tuberculosis, UniProt P9WI83)
PknH = PknH (Mycobacterium tuberculosis, UniProt P9WI71)
PknE = PknE (Mycobacterium tuberculosis, UniProt P9WI77)
PknJ = PknJ (Mycobacterium tuberculosis, UniProt P9WI67)
Sequence of PknJ (P9WI67 whole entry): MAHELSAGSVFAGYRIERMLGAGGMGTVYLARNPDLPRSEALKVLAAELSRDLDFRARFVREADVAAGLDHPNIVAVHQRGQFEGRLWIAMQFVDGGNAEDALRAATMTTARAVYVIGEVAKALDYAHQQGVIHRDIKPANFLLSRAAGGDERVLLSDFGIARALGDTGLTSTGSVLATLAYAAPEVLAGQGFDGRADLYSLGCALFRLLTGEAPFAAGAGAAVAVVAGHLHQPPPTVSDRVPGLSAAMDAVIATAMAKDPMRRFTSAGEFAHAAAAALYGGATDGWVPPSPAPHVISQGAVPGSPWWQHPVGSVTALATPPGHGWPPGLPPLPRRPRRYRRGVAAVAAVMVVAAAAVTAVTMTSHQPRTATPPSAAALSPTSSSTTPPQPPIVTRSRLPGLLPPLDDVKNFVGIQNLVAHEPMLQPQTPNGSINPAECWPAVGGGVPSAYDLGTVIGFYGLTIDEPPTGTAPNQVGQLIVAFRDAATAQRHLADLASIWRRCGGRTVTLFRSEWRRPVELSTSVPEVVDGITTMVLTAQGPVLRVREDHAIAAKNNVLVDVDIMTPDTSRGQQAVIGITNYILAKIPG

Sequence of PknD (GST-PknD) (P9WI79 whole entry): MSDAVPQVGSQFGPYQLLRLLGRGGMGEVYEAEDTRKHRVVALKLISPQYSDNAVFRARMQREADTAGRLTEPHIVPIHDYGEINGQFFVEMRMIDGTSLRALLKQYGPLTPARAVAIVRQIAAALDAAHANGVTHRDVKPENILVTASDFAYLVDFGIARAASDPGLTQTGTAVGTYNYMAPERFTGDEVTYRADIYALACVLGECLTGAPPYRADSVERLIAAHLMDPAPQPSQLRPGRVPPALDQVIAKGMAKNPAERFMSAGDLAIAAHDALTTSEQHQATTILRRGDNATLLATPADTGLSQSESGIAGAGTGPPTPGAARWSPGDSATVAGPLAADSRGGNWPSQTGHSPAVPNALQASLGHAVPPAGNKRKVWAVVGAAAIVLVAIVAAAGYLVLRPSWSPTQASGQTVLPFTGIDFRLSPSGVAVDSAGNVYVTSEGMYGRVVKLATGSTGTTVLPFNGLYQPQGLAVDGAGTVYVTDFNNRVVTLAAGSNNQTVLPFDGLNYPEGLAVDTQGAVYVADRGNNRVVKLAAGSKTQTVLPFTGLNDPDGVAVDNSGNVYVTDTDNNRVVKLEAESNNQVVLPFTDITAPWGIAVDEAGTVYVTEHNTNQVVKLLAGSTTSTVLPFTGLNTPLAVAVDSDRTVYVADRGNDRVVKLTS
Sequence of PknA (P9WI83 whole entry): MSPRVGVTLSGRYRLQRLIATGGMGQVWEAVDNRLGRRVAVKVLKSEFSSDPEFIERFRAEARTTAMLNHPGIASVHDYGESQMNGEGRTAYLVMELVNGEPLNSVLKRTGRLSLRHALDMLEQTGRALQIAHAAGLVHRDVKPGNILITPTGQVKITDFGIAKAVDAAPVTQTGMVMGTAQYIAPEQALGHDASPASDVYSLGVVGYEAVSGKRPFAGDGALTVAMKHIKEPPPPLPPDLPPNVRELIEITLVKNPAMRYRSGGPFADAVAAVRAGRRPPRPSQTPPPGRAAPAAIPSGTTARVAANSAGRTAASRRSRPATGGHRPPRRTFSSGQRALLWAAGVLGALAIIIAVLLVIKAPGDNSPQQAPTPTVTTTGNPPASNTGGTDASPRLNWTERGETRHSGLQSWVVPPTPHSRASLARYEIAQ
Sequence of PknE (P9WI77 whole entry): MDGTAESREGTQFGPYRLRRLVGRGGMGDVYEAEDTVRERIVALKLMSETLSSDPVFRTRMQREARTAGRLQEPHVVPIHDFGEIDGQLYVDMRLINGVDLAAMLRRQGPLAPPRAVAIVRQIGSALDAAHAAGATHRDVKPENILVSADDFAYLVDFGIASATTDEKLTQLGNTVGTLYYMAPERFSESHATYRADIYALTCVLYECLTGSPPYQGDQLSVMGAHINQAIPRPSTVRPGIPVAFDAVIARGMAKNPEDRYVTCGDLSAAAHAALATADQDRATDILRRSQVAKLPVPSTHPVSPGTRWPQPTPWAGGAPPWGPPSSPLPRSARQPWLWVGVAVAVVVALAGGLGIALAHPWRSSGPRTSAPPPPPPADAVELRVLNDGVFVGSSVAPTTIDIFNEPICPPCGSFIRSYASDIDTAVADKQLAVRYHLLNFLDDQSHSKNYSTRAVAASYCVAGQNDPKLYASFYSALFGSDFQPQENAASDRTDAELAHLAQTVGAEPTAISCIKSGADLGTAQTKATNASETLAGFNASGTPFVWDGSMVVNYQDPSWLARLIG
Sequence of PknH (P9WI71 whole entry): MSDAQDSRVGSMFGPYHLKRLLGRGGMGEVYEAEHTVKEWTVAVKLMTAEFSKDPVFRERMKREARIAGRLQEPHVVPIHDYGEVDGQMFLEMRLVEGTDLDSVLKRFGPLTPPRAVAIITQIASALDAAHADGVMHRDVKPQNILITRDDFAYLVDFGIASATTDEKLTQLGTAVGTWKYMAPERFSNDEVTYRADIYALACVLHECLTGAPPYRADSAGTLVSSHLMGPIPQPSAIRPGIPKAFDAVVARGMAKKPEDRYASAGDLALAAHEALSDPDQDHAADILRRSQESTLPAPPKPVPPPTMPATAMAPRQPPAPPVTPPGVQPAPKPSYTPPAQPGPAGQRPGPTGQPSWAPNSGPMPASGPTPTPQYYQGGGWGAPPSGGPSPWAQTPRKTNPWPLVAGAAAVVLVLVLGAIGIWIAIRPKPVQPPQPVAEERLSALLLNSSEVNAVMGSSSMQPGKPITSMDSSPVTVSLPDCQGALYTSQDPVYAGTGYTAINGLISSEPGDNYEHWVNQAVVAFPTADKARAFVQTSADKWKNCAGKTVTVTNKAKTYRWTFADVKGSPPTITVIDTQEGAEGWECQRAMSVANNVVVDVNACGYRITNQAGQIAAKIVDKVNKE
Sequence of PknG (P9WI73 whole entry): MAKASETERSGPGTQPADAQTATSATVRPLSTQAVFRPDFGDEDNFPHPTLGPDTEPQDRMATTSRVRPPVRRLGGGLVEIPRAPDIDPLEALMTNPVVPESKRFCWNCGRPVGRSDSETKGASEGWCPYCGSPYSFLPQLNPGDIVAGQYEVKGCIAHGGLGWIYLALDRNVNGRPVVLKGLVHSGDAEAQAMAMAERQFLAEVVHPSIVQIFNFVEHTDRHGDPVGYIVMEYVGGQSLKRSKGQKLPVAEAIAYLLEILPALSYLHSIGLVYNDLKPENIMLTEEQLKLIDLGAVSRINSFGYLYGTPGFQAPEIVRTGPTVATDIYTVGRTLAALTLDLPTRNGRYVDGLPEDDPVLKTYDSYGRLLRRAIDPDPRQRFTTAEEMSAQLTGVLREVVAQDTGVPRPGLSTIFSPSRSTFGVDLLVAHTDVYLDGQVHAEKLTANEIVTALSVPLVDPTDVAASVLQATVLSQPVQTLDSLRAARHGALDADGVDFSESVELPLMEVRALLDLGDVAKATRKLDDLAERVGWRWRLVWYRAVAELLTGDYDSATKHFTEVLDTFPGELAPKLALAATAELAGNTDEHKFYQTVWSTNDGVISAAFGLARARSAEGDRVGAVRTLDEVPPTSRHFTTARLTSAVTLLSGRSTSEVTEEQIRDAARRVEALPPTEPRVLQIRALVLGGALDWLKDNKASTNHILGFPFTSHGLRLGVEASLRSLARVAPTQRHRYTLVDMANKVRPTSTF

Q: Which “in vitro radiolabelled phosphorylation, SDS-PAGE autoradiography” value (“in vitro radiolabelled phosphorylation” for short) (PknG) does the source give for `Nc1ncnc2c1ncn2[C@@H]1O[C@H](COP(=O)(O)OP(=O)(O)OP(=O)(O)O)[C@@H](O)[C@H]1O` [[γ-^33P]ATP] here?
A: PknA, PknD, PknE, PknG, PknH and PknJ phosphorylated the (His)6-MDH

Q: And the “in vitro radiolabelled phosphorylation” value (PknD (GST-PknD))?
A: the MDH was phosphorylated by PknD, but could not be autophosphorylated

Q: And the “in vitro radiolabelled phosphorylation” value (PknA)?
A: PknA, PknD, PknE, PknG, PknH and PknJ phosphorylated the (His)6-MDH

Q: And the “in vitro radiolabelled phosphorylation” value (PknH)?
A: PknA, PknD, PknE, PknG, PknH and PknJ phosphorylated the (His)6-MDH

Q: What about the “in vitro radiolabelled phosphorylation” value (PknE) of the same compound?
A: PknA, PknD, PknE, PknG, PknH and PknJ phosphorylated the (His)6-MDH

Q: And the “in vitro radiolabelled phosphorylation” value (PknJ)?
A: PknA, PknD, PknE, PknG, PknH and PknJ phosphorylated the (His)6-MDH
